Patent US4176185A, “Spiro-quinolylhydantoins” (Pfizer Inc., priority 1979, dated 1979)

Assays:
aldose reductase = assay: inhibition of aldose reductase enzyme activity; format: biochemical; details: partially purified aldose reductase from calf lens
From the text: (§1) The activity of the compounds of the present invention as agents for the control of chronic diabetic complications may be determined by a number of standard biological or pharmacological tests. Suitable tests include (1) measuring their ability to inhibit the enzyme activity of isolated aldose reductase; (2) measuring their ability to reduce or inhibit sorbitol accumulation in the sciatic nerve of acutely streptozotocinized (i.e. diabetic) rats; (3) measuring their ability to reverse already-elevated sorbitol levels in the sciatic nerve and lens of chronic streptozotocin-induced diabetic rats; (4) measuring their ability to prevent or inhibit galactitol formation in the lens of acutely galactosemic rats; and (5) measuring their ability to delay cataract formation and reduce the severity of lens opacities in chronic galactosemic rats.
The compounds of Examples 3 and 6 were tested for their ability to reduce or inhibit aldose reductase enzyme activity, following the procedure described in U.S. Pat. No. 3,821,383 and based on the procedure of Hayman et. al., Journal of Biological Chemistry, 240, 877 (1965). The substrate employed was partially purified aldose reductase enzyme obtained from calf lens. The results obtained with each compound at a concentration of 10^-4 M are expressed as percent inhibition of enzyme activity.

[1] = test system: sorbitol accumulation in the sciatic nerve; assay: inhibition of sorbitol accumulation in the sciatic nerve of streptozotocinized (diabetic) rats; format: in vivo, rat; details: measured 27 h after induction of diabetes, vs untreated
From the text: as §1
The compounds of Examples 3 and 6 were tested for their ability to reduce or inhibit sorbitol accumulation in the sciatic nerve of streptozotocinized (i.e. diabetic) rats by the procedure essentially described in U.S. Pat. No. 3,821,383. In the present study, the amount of sorbitol accumulation in the sciatic nerves was measured 27 hours after induction of diabetes. The compounds were administered orally at the dose levels indicated at 4, 8 and 24 hours following the administration of streptozotocin. […]

| SMILES | % Inhibition at 10^-4 M (aldose reductase enzyme activity) (aldose reductase) [%] | % Inhibition (sorbitol accumulation in sciatic nerve) ([1]; 1.5 mg/kg oral at 4, 8 and 24 h after streptozotocin) [%] | % Inhibition (sorbitol accumulation in sciatic nerve) ([1]; 10 mg/kg oral at 4, 8 and 24 h after streptozotocin) [%] |
| --- | --- | --- | --- |
| O=C1NC(=O)C2(CCOc3c2ccc2cccnc32)N1 (stereo not shown) [Example 3] | 75 | 27 | – |
| O=C1NC(=O)C2(CCOc3c2ccc2ncccc32)N1 (stereo not shown) [Example 6] | 94 | – | 92 |
